Experiments:
[1] = relative to cholecalciferol itself; cited from earlier work
[2] = Determination of solubility velocity by ICP-MS in 0.1 M hydrochloride solution; conditions: in hydrochloride 0.1 M, 37° C., 84Sr signal
Method: Determination of solubility velocity by Inductively Coupled Plasma-Mass Spectrometry (ICP-MS)
The solubility is measures as strontium signals over time using ICP-MS. Using this technique it is possible to follow multiple isotopes of the element, here, ^84Sr, ^86Sr, ^87Sr and ^88Sr.
A hydrochloride solution (0.1 M) was added to the sample and the sample then immediately enters, by means of a peristaltic pump, the atomizer of the ICP-MS apparatus. The pump speed was 4.4 ml/min. […] The temperature of the HCl solution was 37° C.
The solubility velocity of the compound is obtained by analysing the slopes of the front curves. The first curve represents the experiment and the second curve the apparatus, thus the difference between the slopes of the two curves are used to calculate the solubility velocity by division with the top value.

solubility velocity [2] | Structure (SMILES) | times more effective in terms of bioavailability than cholecalciferol [1]
– | C=C1/C(=C\C=C2/CCC[C@]3(C)[C@@H]([C@H](C)CCCC(C)(C)O)CC[C@@H]23)C[C@@H](O)C[C@@H]1O [1,25 dihydroxycholecalciferol] | ten
very high | [Cl-].[Cl-].[Sr+2] [strontium chloride] | –
– | C=C1CC[C@H](O)C/C1=C/C=C1\CCC[C@]2(C)[C@@H]([C@H](C)CCCC(C)(C)O)CC[C@@H]12 [25-hydroxycholecalciferol] | five
